# PubChem BioAssay (NCI)
#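 Values below derive from 48-hour exposures of cells grown in 96-well plates, with endpoints linearly interpolated between the two concentrations bracketing the appropriate inhibition level. Here, GI50 denotes the concentration required for 50% inhibition of growth. TGI denotes the concentration required for complete inhibition of growth.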
# Assays:
# Experiment in all cases: NCI anticancer screen, dose series, 48 h
# [1] = tested on: UACC-257 melanoma
# [2] = tested on: UACC-62 melanoma
# [3] = tested on: CCRF-CEM leukemia
# [4] = tested on: MCF7 breast
# [5] = tested on: SNB-75 CNS
# [6] = tested on: HS 578T breast
# [7] = tested on: K-562 leukemia
# [8] = tested on: EKVX NSCLC
# [9] = tested on: HL-60(TB) leukemia
# [10] = tested on: MDA-MB-468 breast
# [11] = tested on: BT-549 breast
# [12] = tested on: NCI-H522 lung
# [13] = tested on: OVCAR-5 ovarian
# [14] = tested on: SN12C renal
# [15] = tested on: MDA-MB-435
# [16] = tested on: 786-0 renal
# [17] = tested on: NCI-H23 lung
# [18] = tested on: SF-539 CNS
# [19] = tested on: LOX IMVI melanoma
# [20] = tested on: T-47D breast
# [21] = tested on: IGROV1 ovarian
# [22] = tested on: HCT-15 colon
# [23] = tested on: SK-MEL-28 melanoma
# [24] = tested on: M14 melanoma
# [25] = tested on: NCI-H226 lung
# [26] = tested on: PC-3 prostate
# [27] = tested on: OVCAR-8 ovarian
# [28] = tested on: OVCAR-4 ovarian
# [29] = tested on: SF-295 CNS
# [30] = tested on: A549 NSCLC
# [31] = tested on: HOP-62 NSCLC
# [32] = tested on: SK-MEL-5 melanoma
# [33] = tested on: RPMI-8226 leukemia
# [34] = tested on: SK-OV-3 ovarian
# [35] = tested on: OVCAR-3 ovarian
# [36] = tested on: MALME-3M melanoma
# [37] = tested on: NCI-H460 lung
# [38] = tested on: U251 CNS
# [39] = tested on: RXF 393 renal
# [40] = tested on: MDA-MB-231 breast
# [41] = tested on: SF-268 CNS
# [42] = tested on: A498 renal
# [43] = tested on: SW-620 colon
# [44] = tested on: HOP-92 NSCLC
# [45] = tested on: HCC-2998 colon
# [46] = tested on: CAKI-1 renal
# [47] = tested on: KM12 colon
# [48] = tested on: HT29 colon
# [49] = tested on: SNB-19 CNS
# [50] = tested on: MOLT-4 leukemia
# [51] = tested on: DU-145 prostate
# [52] = tested on: COLO 205 colon
# [53] = tested on: SK-MEL-2 melanoma
# [54] = tested on: NCI/ADR-RES ovarian
smiles,measurement,setting,value
CCCSc1nc(Nc2ccc(S(N)(=O)=O)cc2)c(C#N)c(-c2ccc(Cl)cc2)n1,GI50,[1],28.5 µM
same,TGI,[1],> 100 µM
same,GI50,[2],5.11 µM
same,TGI,[2],> 100 µM
same,GI50,[3],> 100 µM
same,TGI,[3],> 100 µM
same,GI50,[4],24.3 µM
same,TGI,[4],> 100 µM
same,GI50,[5],2.03 µM
same,TGI,[5],9.63 µM
same,GI50,[6],2.59 µM
same,TGI,[6],8.09 µM
same,GI50,[7],2.85 µM
same,TGI,[7],> 100 µM
same,GI50,[8],9.38 µM
same,TGI,[8],> 100 µM
same,GI50,[9],> 100 µM
same,TGI,[9],> 100 µM
same,GI50,[10],4.49 µM
same,TGI,[10],37.1 µM
same,GI50,[11],30.8 µM
same,TGI,[11],> 100 µM
same,GI50,[12],16.4 µM
same,TGI,[12],> 100 µM
same,GI50,[13],8.78 µM
same,TGI,[13],> 100 µM
same,GI50,[14],2.39 µM
same,TGI,[14],7.5 µM
same,GI50,[15],7.9 µM
same,TGI,[15],> 100 µM
same,GI50,[16],1.98 µM
same,TGI,[16],4.06 µM
same,GI50,[17],9.53 µM
same,TGI,[17],43 µM
same,GI50,[18],2.57 µM
same,TGI,[18],10 µM
same,GI50,[19],1.82 µM
same,TGI,[19],3.55 µM
same,GI50,[20],> 100 µM
same,TGI,[20],> 100 µM
same,GI50,[21],6.03 µM
same,TGI,[21],> 100 µM
same,GI50,[22],2.92 µM
same,TGI,[22],> 100 µM
same,GI50,[23],36.1 µM
same,TGI,[23],> 100 µM
same,GI50,[24],3.48 µM
same,TGI,[24],25.3 µM
same,GI50,[25],2.6 µM
same,TGI,[25],8.66 µM
same,GI50,[26],13.4 µM
same,TGI,[26],> 100 µM
same,GI50,[27],3.42 µM
same,TGI,[27],16.1 µM
same,GI50,[28],2.23 µM
same,TGI,[28],5.65 µM
same,GI50,[29],2.1 µM
same,TGI,[29],4.94 µM
same,GI50,[30],3.62 µM
same,TGI,[30],> 100 µM
same,GI50,[31],2.35 µM
same,TGI,[31],5.67 µM
same,GI50,[32],6.96 µM
same,TGI,[32],> 100 µM
same,GI50,[33],3.14 µM
same,TGI,[33],> 100 µM
same,GI50,[34],4.11 µM
same,TGI,[34],67.6 µM
same,GI50,[35],3.63 µM
same,TGI,[35],19.6 µM
same,GI50,[36],3.07 µM
same,TGI,[36],17.9 µM
same,GI50,[37],3.85 µM
same,TGI,[37],22.4 µM
same,GI50,[38],2.42 µM
same,TGI,[38],7.81 µM
same,GI50,[39],2 µM
same,TGI,[39],4.63 µM
same,GI50,[40],2.83 µM
same,TGI,[40],8.9 µM
same,GI50,[41],9 µM
same,TGI,[41],> 100 µM
same,GI50,[42],1.78 µM
same,TGI,[42],4.31 µM
same,GI50,[43],4.67 µM
same,TGI,[43],29.6 µM
same,GI50,[44],1.39 µM
same,TGI,[44],3.73 µM
same,GI50,[45],4.2 µM
same,TGI,[45],> 100 µM
same,GI50,[46],1.94 µM
same,TGI,[46],4.8 µM
same,GI50,[47],4.17 µM
same,TGI,[47],> 100 µM
same,GI50,[48],6.41 µM
same,TGI,[48],> 100 µM
same,GI50,[49],4.04 µM
same,TGI,[49],20.9 µM
same,GI50,[50],8.11 µM
same,TGI,[50],> 100 µM
same,GI50,[51],12.2 µM
same,TGI,[51],97.1 µM
same,GI50,[52],9.54 µM
same,TGI,[52],> 100 µM
same,GI50,[53],13.8 µM
same,TGI,[53],> 100 µM
same,GI50,[54],4.89 µM
same,TGI,[54],90.5 µM
